These results are taken from patent US10160755B2 (Plexxikon Inc., priority 2015, dated 2018).

A word on the IC50: it is the midpoint of a concentration-inhibition curve.

Assay [1] addresses T1, FLT3-D835Y (Homo sapiens, UniProt P36888, D835Y).
T1 construct: purchased Invitrogen PV3967
T1 sequence (P36888 27-993 D835Y): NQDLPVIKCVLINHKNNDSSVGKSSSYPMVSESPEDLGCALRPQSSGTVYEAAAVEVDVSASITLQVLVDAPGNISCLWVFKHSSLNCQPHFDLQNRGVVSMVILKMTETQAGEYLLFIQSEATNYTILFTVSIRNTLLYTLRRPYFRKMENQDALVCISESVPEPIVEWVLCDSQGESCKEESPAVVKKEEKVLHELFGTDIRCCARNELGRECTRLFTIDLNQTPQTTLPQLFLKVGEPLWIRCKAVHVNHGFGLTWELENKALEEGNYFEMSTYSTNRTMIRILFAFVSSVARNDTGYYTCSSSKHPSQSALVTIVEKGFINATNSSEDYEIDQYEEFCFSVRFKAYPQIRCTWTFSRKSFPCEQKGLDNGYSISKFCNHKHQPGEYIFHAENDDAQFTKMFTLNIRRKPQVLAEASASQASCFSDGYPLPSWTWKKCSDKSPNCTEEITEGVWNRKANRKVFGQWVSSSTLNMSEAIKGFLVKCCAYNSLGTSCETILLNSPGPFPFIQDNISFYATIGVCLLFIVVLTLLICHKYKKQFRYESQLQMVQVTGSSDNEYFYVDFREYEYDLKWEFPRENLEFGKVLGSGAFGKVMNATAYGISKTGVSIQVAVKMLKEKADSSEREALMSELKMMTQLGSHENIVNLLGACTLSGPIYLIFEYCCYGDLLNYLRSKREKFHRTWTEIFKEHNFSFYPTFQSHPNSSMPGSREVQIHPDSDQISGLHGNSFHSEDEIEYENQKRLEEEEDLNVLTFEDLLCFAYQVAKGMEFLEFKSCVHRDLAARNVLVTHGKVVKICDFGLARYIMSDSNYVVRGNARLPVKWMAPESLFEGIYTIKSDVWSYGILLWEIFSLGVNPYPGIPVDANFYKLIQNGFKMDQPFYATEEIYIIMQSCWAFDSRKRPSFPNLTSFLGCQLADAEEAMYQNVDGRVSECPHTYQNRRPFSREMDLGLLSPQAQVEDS
The experiment in a line: FLT3-D835Y biochemical kinase assay (AlphaScreen). In short, it runs like this: (§1)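 Read-out is AlphaScreen at 580 nm, where reduced substrate tyrosine phosphorylation lowers bead proximity signal. Reactions contain 30 nM biotinylated poly(Glu4-Tyr) and ATP at 10 μM (D835Y) or 100 μM (ITD); PY20 acceptor beads 10 μg/mL final, 60 min at room temperature before reading.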

Assay [2] deals with T2, FLT3-ITD (Homo sapiens, UniProt P36888).
T2 construct: FLT3-ITD; Invitrogen #PV6190
T2 sequence (P36888 1-993): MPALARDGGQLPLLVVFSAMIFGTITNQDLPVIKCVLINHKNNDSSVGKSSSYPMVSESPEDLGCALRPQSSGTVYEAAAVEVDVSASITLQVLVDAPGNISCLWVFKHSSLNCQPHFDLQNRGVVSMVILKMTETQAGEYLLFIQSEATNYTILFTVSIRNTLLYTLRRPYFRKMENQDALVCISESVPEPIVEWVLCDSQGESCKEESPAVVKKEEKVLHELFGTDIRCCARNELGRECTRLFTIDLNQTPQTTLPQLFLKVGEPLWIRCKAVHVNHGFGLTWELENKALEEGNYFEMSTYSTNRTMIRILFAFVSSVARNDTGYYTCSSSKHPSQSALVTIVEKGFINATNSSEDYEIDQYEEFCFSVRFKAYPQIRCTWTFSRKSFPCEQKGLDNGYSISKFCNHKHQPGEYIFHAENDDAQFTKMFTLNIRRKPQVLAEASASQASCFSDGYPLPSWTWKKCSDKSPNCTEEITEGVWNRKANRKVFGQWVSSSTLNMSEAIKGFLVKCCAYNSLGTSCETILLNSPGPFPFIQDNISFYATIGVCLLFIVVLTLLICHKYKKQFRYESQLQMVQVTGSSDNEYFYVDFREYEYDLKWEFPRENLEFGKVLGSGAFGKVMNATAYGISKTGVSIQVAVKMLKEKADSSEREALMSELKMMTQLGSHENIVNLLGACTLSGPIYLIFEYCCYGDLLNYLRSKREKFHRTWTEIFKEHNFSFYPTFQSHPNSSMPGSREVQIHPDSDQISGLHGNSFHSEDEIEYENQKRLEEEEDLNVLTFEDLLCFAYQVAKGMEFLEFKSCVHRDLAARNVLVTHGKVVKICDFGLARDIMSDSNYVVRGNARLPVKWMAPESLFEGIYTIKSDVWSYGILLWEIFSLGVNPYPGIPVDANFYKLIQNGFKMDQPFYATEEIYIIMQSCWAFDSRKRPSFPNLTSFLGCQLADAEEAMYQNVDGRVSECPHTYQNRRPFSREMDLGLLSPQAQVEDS
The experiment in a line: FLT3-ITD biochemical kinase assay (AlphaScreen). In short, it runs like this: as §1
For orientation: Alpha assays give light when donor and acceptor beads are brought close together.

Assay [3] addresses c-Kit (Homo sapiens, UniProt P10721). The experiment in a line: c-Kit biochemical assay (per US 2007/0032519). The procedure:
The following Table 2 provides data indicating FLT3 ITD, FLT3 D835Y, and KIT biochemical activity, and BaF3 FLT3 ITD/F69L cellular inhibitory activity for exemplary compounds described in this disclosure. In the table below, activity is provided as follows: +++=0.0001<IC50<1 μM; ++=1 μM<IC50<10 μM, +=10 μM<IC50<200 μM. Assays for the biochemical activity of c-Kit and FMS were conducted according to those assays described in US Patent Application Publication number US 2007/0032519, the disclosure of which is hereby incorporated by reference in its entirety.

Chain of c-Kit (P10721 26-976): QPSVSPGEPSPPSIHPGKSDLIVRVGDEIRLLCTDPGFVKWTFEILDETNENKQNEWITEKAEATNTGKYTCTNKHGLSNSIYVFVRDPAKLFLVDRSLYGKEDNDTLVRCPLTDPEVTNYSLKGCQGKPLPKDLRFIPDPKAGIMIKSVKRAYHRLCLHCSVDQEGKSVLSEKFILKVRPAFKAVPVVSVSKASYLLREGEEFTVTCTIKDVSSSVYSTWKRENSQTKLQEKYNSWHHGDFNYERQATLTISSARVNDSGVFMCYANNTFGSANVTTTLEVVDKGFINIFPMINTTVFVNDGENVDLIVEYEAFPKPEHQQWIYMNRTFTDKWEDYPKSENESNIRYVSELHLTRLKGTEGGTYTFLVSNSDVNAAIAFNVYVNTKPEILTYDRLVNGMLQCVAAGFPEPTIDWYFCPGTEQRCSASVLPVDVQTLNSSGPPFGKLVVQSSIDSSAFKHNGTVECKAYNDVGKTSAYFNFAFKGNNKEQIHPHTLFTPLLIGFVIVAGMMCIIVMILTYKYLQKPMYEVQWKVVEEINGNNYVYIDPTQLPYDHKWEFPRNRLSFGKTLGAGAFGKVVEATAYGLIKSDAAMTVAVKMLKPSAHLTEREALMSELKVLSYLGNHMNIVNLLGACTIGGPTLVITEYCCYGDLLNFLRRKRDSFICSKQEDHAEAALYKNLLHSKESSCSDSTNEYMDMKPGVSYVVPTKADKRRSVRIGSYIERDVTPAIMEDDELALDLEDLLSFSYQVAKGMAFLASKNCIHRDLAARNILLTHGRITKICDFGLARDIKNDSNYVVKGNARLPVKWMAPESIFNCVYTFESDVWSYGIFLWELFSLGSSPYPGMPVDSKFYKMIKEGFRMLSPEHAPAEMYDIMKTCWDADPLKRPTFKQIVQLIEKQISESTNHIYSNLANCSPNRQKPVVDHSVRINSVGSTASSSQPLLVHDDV

Regarding `Cn1cnc2ccc(-c3c[nH]c4ncc(-c5ccc(NS(C)(=O)=O)cc5)nc34)cc21` [P-063, N-[4-[7-(3-methylbenzimidazol-5-yl)-5H-pyrrolo[2,3-b]pyrazin-2-yl]phenyl]methanesulfonamide], the IC50 in assay [1] lay in the range of 0.0001 to 1 µM; in assay [2], 0.0001 to 1 µM; in assay [3], 1 to 10 µM.
For the compound `CCn1cnc2ccc(-c3c[nH]c4ncc(OC)cc34)cc21` [P-048, 1-ethyl-6-(5-methoxy-1H-pyrrolo[2,3-b]pyridin-3-yl)benzimidazole], the figures for the IC50 in assay [1], in assay [2] and in assay [3] were 0.0001 to 1 µM, 0.0001 to 1 µM and 10 to 200 µM, respectively.
For `CS(=O)(=O)Nc1cccc(-c2cnc3[nH]cc(-c4ccc5c(c4)N(CC4CC4)CCO5)c3n2)c1` [P-081, N-[3-[7-[4-(cyclopropylmethyl)-2,3-dihydro-1,4-benzoxazin-6-yl]-5H-pyrrolo[2,3-b]pyrazin-2-yl]phenyl]methanesulfonamide], the IC50 in assay [1] was 0.0001 to 1 µM; in assay [2] it was 0.0001 to 1 µM; in assay [3], 10 to 200 µM.
On to `CC(C)(C)n1cnc2ccc(-c3c[nH]c4ncc(-c5cnc(NS(C)(=O)=O)nc5)nc34)cc21` [P-404, N-[5-[7-(3-tert-butylbenzimidazol-5-yl)-5H-pyrrolo[2,3-b]pyrazin-2-yl]pyrimidin-2-yl]methanesulfonamide], for which the results for the 50% inhibitory concentration (IC50) in assay [2] and in assay [3] were 0.0001 to 1 µM and 1 to 10 µM, respectively.
`Cc1nn(C)cc1-c1ccc(-c2cnc3[nH]cc(-c4ccc5ncn(C(C)(C)C)c5c4)c3n2)cc1` [P-323, 7-(3-tert-butylbenzimidazol-5-yl)-2-[4-(1,3-dimethylpyrazol-4-yl)phenyl]-5H-pyrrolo[2,3-b]pyrazine]: the values for the IC50 in assay [2] and in assay [3] were 0.0001 to 1 µM and 1 to 10 µM, respectively.
For `COc1cnc2[nH]cc(-c3ccc4ncn(C(C)C)c4c3)c2c1` [P-050, 1-isopropyl-6-(5-methoxy-1H-pyrrolo[2,3-b]pyridin-3-yl)benzimidazole] the same measures were 0.0001 to 1 µM and 10 to 200 µM.
For the compound `COc1cnc2[nH]cc(-c3ccc4ncn(C5CCNCC5)c4c3)c2c1` [P-071, 5-methoxy-3-[3-(4-piperidyl)benzimidazol-5-yl]-1H-pyrrolo[2,3-b]pyridine], the figures for the IC50 in assay [1] and in assay [3] were 0.0001 to 1 µM and 10 to 200 µM, respectively.
`CC(C)(C)n1cnc2ccc(-c3c[nH]c4ncc(-c5cnc(Cl)nc5)nc34)cc21` [P-389, 7-(3-tert-butylbenzimidazol-5-yl)-2-(2-chloropyrimidin-5-yl)-5H-pyrrolo[2,3-b]pyrazine]: the figures for the IC50 in assay [2] and in assay [3] were 0.0001 to 1 µM and 10 to 200 µM, respectively.
Regarding `Cc1nn(C)cc1-c1cnc2[nH]cc(-c3ccc4ncn(C(C)(C)C)c4c3)c2n1` [P-324, 7-(3-tert-butylbenzimidazol-5-yl)-2-(1,3-dimethylpyrazol-4-yl)-5H-pyrrolo[2,3-b]pyrazine], the IC50 in assay [2] and in assay [3] was 0.0001 to 1 µM each time.
With `Cc1cc2[nH]cnc2cc1-c1c[nH]c2ncccc12` [P-025, 6-methyl-5-(1H-pyrrolo[2,3-b]pyridin-3-yl)-1H-benzimidazole], the half-maximal inhibitory concentration (IC50) in assay [1] lay in the range of 1 to 10 µM; in assay [3], 10 to 200 µM.
Take `CS(=O)(=O)Nc1ccc(-c2cnc3[nH]cc(-c4ccc5ncsc5c4)c3n2)cc1` [P-076, N-[4-[7-(1,3-benzothiazol-6-yl)-5H-pyrrolo[2,3-b]pyrazin-2-yl]phenyl]methanesulfonamide]: the results for the IC50 in assay [1] and in assay [3] were 0.0001 to 1 µM and 1 to 10 µM, respectively.
On to `CNS(=O)(=O)c1ccc(-c2cnc3[nH]cc(-c4ccc5ncsc5c4)c3n2)cc1` [P-078, 4-[7-(1,3-benzothiazol-6-yl)-5H-pyrrolo[2,3-b]pyrazin-2-yl]-N-methyl-benzenesulfonamide], for which the IC50 fell in the range of 0.0001 to 1 µM in assay [1] and 10 to 200 µM in assay [3].
The matching figures for `COc1cnc2[nH]cc(-c3ccc4ncn(Cc5ccccc5)c4c3)c2c1` [P-073, 1-benzyl-6-(5-methoxy-1H-pyrrolo[2,3-b]pyridin-3-yl)benzimidazole]: 0.0001 to 1 µM and 1 to 10 µM.
`COc1ccc(-c2cnc3[nH]cc(-c4ccc5ncsc5c4)c3n2)cn1` [P-077, 6-[2-(6-methoxy-3-pyridyl)-5H-pyrrolo[2,3-b]pyrazin-7-yl]-1,3-benzothiazole]: the IC50 in assay [1] was 0.0001 to 1 µM; in assay [3] it was 1 to 10 µM.
Consider `CC(C)(C)n1cnc2ccc(-c3c[nH]c4ncc(-c5cncc(F)c5)nc34)cc21` [P-386, 7-(3-tert-butylbenzimidazol-5-yl)-2-(5-fluoro-3-pyridyl)-5H-pyrrolo[2,3-b]pyrazine], for which the IC50 lay in the range of 0.0001 to 1 µM in assay [2] and 1 to 10 µM in assay [3].
`COc1cnc2[nH]cc(-c3ccc4ncn(C5CCNC5)c4c3)c2c1` (centres unmarked) [P-067, 5-methoxy-3-(3-pyrrolidin-3-ylbenzimidazol-5-yl)-1H-pyrrolo[2,3-b]pyridine]: the results for the 50% inhibitory concentration (IC50) in assay [1] and in assay [3] were 0.0001 to 1 µM and 10 to 200 µM, respectively.
For the compound `COc1cnc2[nH]cc(-c3cc4nc[nH]c4cc3C)c2c1` [P-026, 5-methoxy-3-(6-methyl-1H-benzimidazol-5-yl)-1H-pyrrolo[2,3-b]pyridine], the IC50 in assay [1] was in the range of 1 to 10 µM; in assay [3] it was 10 to 200 µM.
For `COc1cc(-c2cnc3[nH]cc(-c4ccc5ncsc5c4)c3n2)ccn1` [P-075, 6-[2-(2-methoxy-4-pyridyl)-5H-pyrrolo[2,3-b]pyrazin-7-yl]-1,3-benzothiazole] the same measures were 0.0001 to 1 µM and 10 to 200 µM.
With `CC(C)(C)n1cnc2ccc(-c3c[nH]c4ncc(-c5cncc(N6CCOCC6)c5)nc34)cc21` [P-387, 4-[5-[7-(3-tert-butylbenzimidazol-5-yl)-5H-pyrrolo[2,3-b]pyrazin-2-yl]-3-pyridyl]morpholine], the half-inhibitory concentration (IC50) in assay [2] and in assay [3] was 0.0001 to 1 µM in each case.
`Nc1n[nH]c2ccc(-c3c[nH]c4ncccc34)cc12` [P-006, 5-(1H-pyrrolo[2,3-b]pyridin-3-yl)-1H-indazol-3-amine]: the IC50 in assay [2] and in assay [3] was 1 to 10 µM each time.
`Cn1cc(-c2cnc3[nH]cc(-c4ccc5ncn(C)c5c4)c3c2)ccc1=O` [P-118, 1-methyl-5-[3-(3-methylbenzimidazol-5-yl)-1H-pyrrolo[2,3-b]pyridin-5-yl]pyridin-2-one]: the IC50 in assay [1] lay in the range of 0.0001 to 1 µM; in assay [3], 1 to 10 µM.
As to `COc1cnc2[nH]cc(-c3ccc4ncn(C5CCCCC5)c4c3)c2c1` [P-072, 1-cyclohexyl-6-(5-methoxy-1H-pyrrolo[2,3-b]pyridin-3-yl)benzimidazole], the IC50 in assay [1] lay within 0.0001 to 1 µM; in assay [3], 1 to 10 µM.
